Tests used:
Leishmaniabraziliensis = assay: Skin ulceration of Leishmania-infected hamsters; format: in vivo, hamsters (Mesocricetus auratus); conditions: 200 μg/mL subcutaneous injection at ulcer site 100 μL/mouse/d
Protocol: 2) Research on the treatment with micro- and nano-MgH2 compound particles: • 2.1 MgH2 compound particles with a particle diameter of 100 nm to 1,000 nm were first dissolved in a phosphoric acid buffer to prepare 5 concentration groups (1 mg/100 uL, 3 mg/100 uL, 5 mg/100 uL, 10 mg/100 uL, and 15 mg/100 uL). • 2.2 A Leishmaniabraziliensis-infected mouse model was established, which was specified as follows:
Various hamsters (Mesocricetus auratus) were selected, the lower dorsal margin was shaved, and Leishmania (1 million/100 uL/mouse) was injected subcutaneously at 2 cm of an upper margin of a tail. […] MgH2 compound particles (with a particle size of 100 nm to 1,000 nm) at different concentrations (100 uL) were smeared to a skin lesion of an infected hamster once every 24 h continuously for 14 d. An untreated group (namely, a blank control group, infected mice were not treated) and an antimony preparation subcutaneous injection group (sodium antimony gluconate (5-valent antimony preparation, 200 μg/mL) was injected subcutaneously at an ulcer site 100 μL/mouse/d) were set.

[1] = existing studies; cited from earlier work
Leishmania = assay: Cure time of skin/mucosal ulcer and impaired organ function caused by Leishmania; conditions: in vivo

Question: Which “Healing rate of a skin ulceration wound” value (Leishmaniabraziliensis; day 0) does the source give for “sodium antimony gluconate [Antimony preparation]” here?
Answer: Its value is 0%.

Question: What about the “Healing rate of a skin ulceration wound” value (Leishmaniabraziliensis; day 3) of the same substance?
Answer: Its value is 15.3 ± 2.0%.

Question: What about the “Healing rate of a skin ulceration wound” value (Leishmaniabraziliensis; day 7) of the same substance?
Answer: Its value is 75.2 ± 4.8%.

Question: What about the “Healing rate of a skin ulceration wound” value (Leishmaniabraziliensis; day 14) of the same substance?
Answer: The value was 88.9 ± 5.1%.

Question: What about the side effects [1] of the same substance?
Answer: The side effects was “serious liver and kidney function damage”.

Question: And the cure time (Leishmania)?
Answer: Its cure time is 1 to 3 months.
